1 substance from US9816994B2, “Method for treating a blood component containing sample” (ARKRAY, Inc., priority 2012, dated 2017) can be followed below.

The subject of test [1] is erythrocytes. The test can be described thus: Measurement of lysis time of erythrocytes (absorbance at 650 nm, micro-plate reader). Format: cell-based, human. The method, then: As a sample containing erythrocytes, blood that had been collected from a vein of a healthy person by use of a vacuum blood-collecting vessel (EDTA including 2K) was used. 30 μL of the sample containing the blood was dispensed onto a 96-well microplate, in which 30 μL of the aqueous solution of surfactant was mixed and stirred five times with pipetting, thereby allowing the reaction solution to react homogeneously. The absorbance was measured every one minute with a micro-plate reader. The moment at which the absorbance became 0.5 or lower at a wavelength of 650 nm was determined as the lysis of the blood cells. The results are shown in Table 3 below (Examples 1 and 2). In Examples 1 and 2, the absorbance reached 0.5 within the time period from 30 minutes to 60 minutes after starting the measurement. On the other hand, in Comparative Example 9 where the aqueous solution of the surfactant was replaced by distilled water, the absorbance did never reach 0.5 even 60 minutes after from the start of the measurement. The micro-plate reader used herein was Thermo Labsystems Multiskan Ascent 35 manufactured by Thermo Labsystems.

Test [2] has as its system leukocytes. The test can be described thus: Assessment of damage to leukocytes (trypan blue survival rate). Format: cell-based. As for the experimental part: Leukocytes were separated from 10 ml of fresh blood in accordance with HetaSep protocol (manufactured by STEMCELL (trade name) Technologies), which was suspended in 1 ml of PBS(−) and collected in a 1.5 ml disposable microtube (a microcentrifuge tube with trade name of DSP-MC-15A manufactured by Nichiryo Co., Ltd.). Since a small amount of erythrocytes were still included in the separated leukocytes, the erythrocytes were eliminated by using ammonium chloride (supplied by STEMCELL (trade name) Technologies) in accordance with the attached document, and the leukocytes were collected through centrifugation, washed in PBS(−), and then suspended in 1 ml of a serum-including medium. 50 μL of leukocyte suspension in the serum-including medium and 50 μL of the aqueous solution of the surfactant were mixed in the 1.5 ml microcentrifuge tube, and the mixed solution was stirred with pipetting about five times so that the solution would be homogeneous. […] Provided that the number of cells in a reaction liquid to which distilled water had been added in place of the reagent being 100%, the survival rate was calculated from the number of cells survived 10 minutes after (Example 1) and 30 minutes after (Example 2) from the reaction with the aqueous solution of surfactant.

Test [3] relates to SNU-1 gastric cancer cells. Kind of test: Assessment of damage to cancer cells (trypan blue survival rate), SNU-1. Type of test: cell-based, human. The note with it: 10 minutes after a contact with surfactant, 2.5 w/v %. The method, then:
Cells of SNU-1, MCF-7, SW620, PC3, and NCI-358 derived from gastric cancer, breast cancer, large intestinal cancer, prostate cancer, and lung cancer were prepared to be 2×10^6 Cells/ml and used. The cancer cells were prepared in the following manner. 50 μL of a cancer cell suspension in the serum-including medium and 50 μL of the aqueous solution of the surfactant were added into the 1.5 ml microcentrifuge tube, stirred with pipetting so as to make the solution homogeneous. Later, the solution was allowed to stand at an ambient temperature of 23° C. for about 10 minutes so as to proceed the reaction. […] Provided that the number of cells in a reaction liquid to which distilled water had been added in place of the reagent being 100%, the survival rate was calculated from the number of cells survived 10 minutes after (Example 1) and 30 minutes after (Example 2) from the reaction with the aqueous solution of the surfactant. […]
A mixture of the surfactant No. 1 and either the surfactant No. 2 or No. 3 was prepared at a mixing ratio of 10:0 to 0:10 (weight ratio: the total concentration of the surfactants was 2.5 w/v %). […] The survival rate was calculated from the number of cells survived after the reaction with the mixture of surfactants, provided that the number of cells in a reaction liquid to which distilled water had been added in place of the reagent being 100%. […]

Test [4] has as its system MCF-7 breast cancer cells. Kind of test: Assessment of damage to cancer cells (trypan blue survival rate), MCF-7. Format: cell-based, human. The note with it: 10 minutes after a contact with surfactant, 2.5 w/v %. The method, then:
(§1) Cells of SNU-1, MCF-7, SW620, PC3, and NCI-358 derived from gastric cancer, breast cancer, large intestinal cancer, prostate cancer, and lung cancer were prepared to be 2×10^6 Cells/ml and used. The cancer cells were prepared in the following manner. 50 μL of a cancer cell suspension in the serum-including medium and 50 μL of the aqueous solution of the surfactant were added into the 1.5 ml microcentrifuge tube, stirred with pipetting so as to make the solution homogeneous. Later, the solution was allowed to stand at an ambient temperature of 23° C. for about 10 minutes so as to proceed the reaction. Then, the reaction liquid in the microcentrifuge tube was stirred with pipetting so as to disperse the cells, and subsequently, 50 μL of the liquid was dispensed into another microcentrifuge tube and 50 μL of 0.4% trypan blue stain solution (Invitrogen) was mixed therein. This was injected into a counting chamber so as to count living cells that had not been stained with the trypan blue. Provided that the number of cells in a reaction liquid to which distilled water had been added in place of the reagent being 100%, the survival rate was calculated from the number of cells survived 10 minutes after (Example 1) and 30 minutes after (Example 2) from the reaction with the aqueous solution of the surfactant. […]

In test [5] the test system is SW620 large intestinal cancer cells. Kind of test: Assessment of damage to cancer cells (trypan blue survival rate), SW620. Format: cell-based, human. The note with it: 10 minutes after a contact with surfactant, 2.5 w/v %. The method, then: as §1
The subject of test [6] is PC3 prostate cancer cells. The test can be described thus: Assessment of damage to cancer cells (trypan blue survival rate), PC3. Format: cell-based, human. As to conditions: 10 minutes after a contact with surfactant, 2.5 w/v %. The method, then: as §1
For test [7], the system named is NCI-H358 lung cancer cells. Kind of test: Assessment of damage to cancer cells (trypan blue survival rate), NCI-H358. Type of test: cell-based, human. As to conditions: 10 minutes after a contact with surfactant, 2.5 w/v %. The method, then: as §1

Regarding “polyoxyethylene octyl dodecylether (EO=25) [Surfactant No. 1]”, the “Lysis time to reach absorbance of 0.5” value in test [1] (surfactant (2.5 w/v %), mixing ratio 2:8 (No. 1 is 80%)) lay within 30 to 60 min; in test [1] (surfactant used alone, preparation concentration 2.5 w/v %), 30 to 60 min. For the same substance, the “selectivity of lowering survival rate, leukocytes against cancer cells” value in test [2] (2.5 w/v % aqueous solution, 10 and 30 minutes) is given as “lower selectively the survival rate of the leukocytes rather than cancer cells”. The “Leukocyte survival rate (%)” value in test [2] (10 minutes after contact, 2.5 w/v %, 23° C., distilled water = 100%) is given as 71.8%. The “Cancer cell survival rate (%) SNU-1 Gastric cancer” value in test [3] came out at 86.1%. Besides, the “Cancer cell survival rate (%) MCF-7 Breast cancer” value in test [4] came to 112.3%. Also, the “Cancer cell survival rate (%) SW620 Large intestinal cancer” value in test [5] stood at 81%. In addition, the “Cancer cell survival rate (%) PC3-9 Prostate cancer” value in test [6] is listed as 101.8%. Moreover, in test [7], the “Cancer cell survival rate (%) MCI-358 Lung cancer” value turned out to be 89.9%.
